According to patent publication US5738998A, “Compositions and methods for diagnosing schizophrenia” (priority 1995, dated 1998):

Test system: Chinese hamster ovary cells without the D4 receptor
Experiment: [35S]GTPγS binding to G proteins in CHO cells without the D4 receptor
Format: cell-based
Conditions: CHO cells without the D4 receptor (FIG. 5B)
Description: FIGS. 5A and 5B illustrate graphic representations of the effect of cycloleucine on spontaneous G protein binding of [^35 S]GTPγS.

NC1(C(=O)O)CCCC1 [cycloleucine]
spontaneous [35S]GTPγS binding: inability
